Assay results reported in ChEMBL document CHEMBL1201862, “PubChem BioAssay data set” (2004).
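Five compound concentrations were applied to cells in 96-well plates for 48 hours; endpoints were derived by simple linear interpolation of the resulting dose-response curve. The concentration for 50% growth inhibition is given as GI50.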 Calls of active or inactive are those of the source. Rule as the data show it: active = GI50 up to about 1.1 µM and inactive = higher.

How the values were obtained:
Test in all cases: NCI tumour cell line growth inhibition, 48 h
SF-539 = tested on: SF-539
CAKI-1 = tested on: CAKI-1
SW-620 = tested on: SW-620
MDA-MB-435 = tested on: MDA-MB-435
SNB-75 = tested on: SNB-75
ACHN = tested on: ACHN
Hs-578T = tested on: Hs-578T
EKVX = tested on: EKVX
IGROV-1 = tested on: IGROV-1
RXF 393 = tested on: RXF 393
M14 = tested on: M14
A549 = tested on: A549
OVCAR-8 = tested on: OVCAR-8
SR = tested on: SR
Malme-3M = tested on: Malme-3M
HOP-62 = tested on: HOP-62
MDA-MB-231 = tested on: MDA-MB-231
MOLT-4 = tested on: MOLT-4
SK-MEL-28 = tested on: SK-MEL-28
DU-145 = tested on: DU-145

Structure (SMILES) | GI50 (SF-539) | GI50 (CAKI-1) | GI50 (SW-620) | GI50 (MDA-MB-435) | GI50 (SNB-75) | GI50 (ACHN) | GI50 (Hs-578T) | GI50 (EKVX) | GI50 (IGROV-1) | GI50 (RXF 393) | GI50 (M14) | GI50 (A549) | GI50 (OVCAR-8) | GI50 (SR) | GI50 (Malme-3M) | GI50 (HOP-62) | GI50 (MDA-MB-231) | GI50 (MOLT-4) | GI50 (SK-MEL-28) | GI50 (DU-145)
O=C1C2CCCCC2C(=O)N1n1c(Cc2ccccc2)n[nH]c1=O (stereo not drawn) | > 100 µM (inactive) | > 100 µM (inactive) | > 100 µM (inactive) | > 100 µM (inactive) | > 100 µM (inactive) | > 100 µM (inactive) | > 100 µM (inactive) | > 100 µM (inactive) | > 100 µM (inactive) | > 100 µM (inactive) | > 100 µM (inactive) | > 100 µM (inactive) | > 100 µM (inactive) | > 100 µM (inactive) | > 100 µM (inactive) | > 100 µM (inactive) | > 100 µM (inactive) | > 100 µM (inactive) |  | 
CN(C)c1ccc(/C=C(\NC(=O)c2ccccc2)C(=O)Nc2cccc(C(=O)NCCCO)c2)cc1 | > 100 µM (inactive) | > 100 µM (inactive) | > 100 µM (inactive) | > 100 µM (inactive) | > 100 µM (inactive) | > 100 µM (inactive) | > 100 µM (inactive) | > 100 µM (inactive) | > 100 µM (inactive) | > 100 µM (inactive) | > 100 µM (inactive) | > 100 µM (inactive) | > 100 µM (inactive) |  | > 100 µM (inactive) | > 100 µM (inactive) | > 100 µM (inactive) | > 100 µM (inactive) | > 100 µM (inactive) | > 100 µM (inactive)
Clc1ccc2nc3c(c(-c4ccccc4)nn3-c3ccccc3)c(-c3ccccc3)c2c1 |  |  | > 100 µM (inactive) | > 100 µM (inactive) | > 100 µM (inactive) | > 100 µM (inactive) | > 100 µM (inactive) | > 100 µM (inactive) | > 100 µM (inactive) |  | > 100 µM (inactive) | > 100 µM (inactive) | > 100 µM (inactive) | > 100 µM (inactive) | > 100 µM (inactive) | > 100 µM (inactive) | > 100 µM (inactive) | > 100 µM (inactive) | > 100 µM (inactive) | > 100 µM (inactive)
CC1(C)CC(=O)C2=C(C1)NC(SCC(=O)O)=C(C#N)C2c1ccc(Br)cc1 (stereo not drawn) |  | > 100 µM (inactive) | > 100 µM (inactive) | > 100 µM (inactive) | > 100 µM (inactive) | > 100 µM (inactive) | > 100 µM (inactive) | > 100 µM (inactive) | > 100 µM (inactive) | > 100 µM (inactive) | > 100 µM (inactive) | > 100 µM (inactive) | > 100 µM (inactive) |  |  | > 100 µM (inactive) | > 100 µM (inactive) |  | > 100 µM (inactive) | > 100 µM (inactive)
COC(=O)/C=C1\C(CO[Si](C)(C)C(C)(C)C)OC(n2cc(C)c(=O)n(C)c2=O)C1O[Si](C)(C)C(C)(C)C (stereo not drawn) |  |  | > 100 µM (inactive) | 62.4 µM (inactive) | > 100 µM (inactive) | > 100 µM (inactive) | > 100 µM (inactive) | > 100 µM (inactive) | > 100 µM (inactive) |  | > 100 µM (inactive) | > 100 µM (inactive) | > 100 µM (inactive) |  | > 100 µM (inactive) | > 100 µM (inactive) | > 100 µM (inactive) | > 100 µM (inactive) | > 100 µM (inactive) | > 100 µM (inactive)
O=C1CCC2c3ccccc3NCN12 (stereo not drawn) | > 100 µM (inactive) | > 100 µM (inactive) | > 100 µM (inactive) | > 100 µM (inactive) | > 100 µM (inactive) | > 100 µM (inactive) | > 100 µM (inactive) | > 100 µM (inactive) | > 100 µM (inactive) | > 100 µM (inactive) | > 100 µM (inactive) | > 100 µM (inactive) | > 100 µM (inactive) |  | > 100 µM (inactive) | > 100 µM (inactive) | > 100 µM (inactive) | > 100 µM (inactive) | > 100 µM (inactive) | > 100 µM (inactive)
Nc1ncnc2nc(N3CCN(CCO)CC3)[nH]c12 | > 100 µM (inactive) | > 100 µM (inactive) | > 100 µM (inactive) | > 100 µM (inactive) |  | > 100 µM (inactive) | > 100 µM (inactive) | > 100 µM (inactive) | > 100 µM (inactive) | > 100 µM (inactive) | > 100 µM (inactive) | > 100 µM (inactive) | > 100 µM (inactive) |  | > 100 µM (inactive) | > 100 µM (inactive) | > 100 µM (inactive) | 50.6 µM (inactive) | > 100 µM (inactive) | > 100 µM (inactive)
Cc1ccc(C(=O)Nc2ccc(CP(=O)(O)O)cc2CP(=O)(O)O)cc1NC(=O)c1cccc(N)c1 | > 100 µM (inactive) | > 100 µM (inactive) | > 100 µM (inactive) | > 100 µM (inactive) | > 100 µM (inactive) | > 100 µM (inactive) | > 100 µM (inactive) | > 100 µM (inactive) | > 100 µM (inactive) | > 100 µM (inactive) | > 100 µM (inactive) | > 100 µM (inactive) | > 100 µM (inactive) |  | > 100 µM (inactive) | > 100 µM (inactive) | > 100 µM (inactive) | > 100 µM (inactive) | > 100 µM (inactive) | > 100 µM (inactive)
O=C(Cc1ccccc1)N/N=C(/CCN1CCCC1)CC(c1ccccc1)c1c(O)c2ccccc2oc1=O (stereo not drawn) | > 100 µM (inactive) | > 100 µM (inactive) | > 100 µM (inactive) | > 100 µM (inactive) | > 100 µM (inactive) | > 100 µM (inactive) | 76.7 µM (inactive) | > 100 µM (inactive) | > 100 µM (inactive) |  | > 100 µM (inactive) | > 100 µM (inactive) | > 100 µM (inactive) | 21.4 µM (inactive) | 57.4 µM (inactive) |  | 26 µM (inactive) | 46.6 µM (inactive) | > 100 µM (inactive) | > 100 µM (inactive)
COC(=O)c1sc(=S)sc1SCc1ccccc1CSc1sc(=S)sc1C(=O)OC |  | > 100 µM (inactive) | > 100 µM (inactive) | > 100 µM (inactive) | 38.6 µM (inactive) | > 100 µM (inactive) | > 100 µM (inactive) | > 100 µM (inactive) | > 100 µM (inactive) | 44.3 µM (inactive) | > 100 µM (inactive) | > 100 µM (inactive) | > 100 µM (inactive) |  | > 100 µM (inactive) | 85.7 µM (inactive) | > 100 µM (inactive) | > 100 µM (inactive) | > 100 µM (inactive) | > 100 µM (inactive)
C/C=C/C(C#N)(/C=C/c1ccccc1)OP1(=O)OC(c2ccccc2)C(C)N1C (stereo not drawn) | 17.8 µM (inactive) | 23.3 µM (inactive) | 16.1 µM (inactive) | 18.2 µM (inactive) | 20.5 µM (inactive) | 26.9 µM (inactive) | 22.4 µM (inactive) | 20.6 µM (inactive) | 16.4 µM (inactive) | 20.7 µM (inactive) | 20 µM (inactive) | 20 µM (inactive) | 17.9 µM (inactive) |  | 18.9 µM (inactive) | 19.4 µM (inactive) | 17.5 µM (inactive) | 10.9 µM (inactive) | 17.1 µM (inactive) | 30 µM (inactive)
CN(C)CCCOc1nc2c(c(=O)n(C)c(=O)n2C)n1C.SC1=NC=NC2=NC=NC12 | 1.7 µM (inactive) | 1.02 µM (active) | 4.45 µM (inactive) | 1.7 µM (inactive) | 6.12 µM (inactive) | 6.84 µM (inactive) | 16 µM (inactive) | 33.7 µM (inactive) | 5.93 µM (inactive) | > 100 µM (inactive) | 8.38 µM (inactive) | 22 µM (inactive) | 22.2 µM (inactive) |  | 0.634 µM (active) | 18.5 µM (inactive) | 1.69 µM (inactive) | 0.43 µM (active) | 55.5 µM (inactive) | 0.692 µM (active)
O=C1CC2(CCCc3sccc32)C(=O)N1 (stereo not drawn) | > 100 µM (inactive) | > 100 µM (inactive) | > 100 µM (inactive) | > 100 µM (inactive) | > 100 µM (inactive) | > 100 µM (inactive) | > 100 µM (inactive) | > 100 µM (inactive) | > 100 µM (inactive) | > 100 µM (inactive) | > 100 µM (inactive) | > 100 µM (inactive) | > 100 µM (inactive) |  | > 100 µM (inactive) | > 100 µM (inactive) | > 100 µM (inactive) | > 100 µM (inactive) | > 100 µM (inactive) | > 100 µM (inactive)
O=C(c1cc(Br)ccc1O)c1cc(Br)ccc1O | 21.2 µM (inactive) | 18.2 µM (inactive) | 16.4 µM (inactive) | 15.8 µM (inactive) | 16.4 µM (inactive) | 16.4 µM (inactive) | 29.8 µM (inactive) | 15.6 µM (inactive) | 14.3 µM (inactive) | 14.7 µM (inactive) | 15.7 µM (inactive) | 17.5 µM (inactive) | 16.9 µM (inactive) |  | 17.3 µM (inactive) | 18.7 µM (inactive) | 17.2 µM (inactive) | 18.4 µM (inactive) | 16.8 µM (inactive) | 15.8 µM (inactive)
CC(NNC(=O)CC(=O)N(C(=O)c1ccccc1)c1ccc(Cl)cc1)c1cc2ccccc2oc1=O (stereo not drawn) | > 10 µM (inactive) | > 10 µM (inactive) | > 10 µM (inactive) | > 10 µM (inactive) | > 10 µM (inactive) | > 10 µM (inactive) | > 10 µM (inactive) | > 10 µM (inactive) | > 10 µM (inactive) | > 10 µM (inactive) | > 10 µM (inactive) | > 10 µM (inactive) | > 10 µM (inactive) |  | > 10 µM (inactive) | > 10 µM (inactive) | > 10 µM (inactive) | > 10 µM (inactive) | > 10 µM (inactive) | > 10 µM (inactive)
